# Data: publication PMC11313944, “Ethyl Acetate Fraction from Eleutherococcus divaricatus Root Extract as a Promising Source of Compounds with Anti-Hyaluronidase, Anti-Tyrosinase, and Antioxidant Activity but Not Anti-Melanoma Activity” (Molecules, 2024)
# Marks after values point to notes of the source that are not given here.
# Columns and labels:
# hyaluronidase = details: cited from earlier work
# [1] = target: mushroom tyrosinase (mTYR); experiment: Tyrosinase inhibition assay (L-tyrosine substrate); assay type: biochemical; details: phenolic acid and eleutheroside standards (Table 6)
# Procedure: Tyrosinase inhibitor assays were conducted in 96-well plates using a modified method originally described by Wróbel-Biedrawa. The process involves the conversion of […] to L-DOPA, then to DOPA-quinone, facilitated by the tyrosinase enzyme. This reaction results in the solution turning brown. In brief, 10 μL of the sample (concentrations of 10.0, 1.0, and 0.1 mg/mL in 10% DMSO) was combined with 150 μL of a phosphoric buffer containing mushroom tyrosinase (pH = 6.88, 100 U/mL). This mixture was then incubated for 10 min at room temperature. […] Following incubation, L-tyrosine (0.3 mg/mL) was added to each well, and the absorbance was measured at 492 nm (using a kinetic model every 5 min). Two time points (t1 and t2) were selected within the linear range of the graph. All samples were tested in triplicate. […] INHTYR=AC−AS/AC∗100%
# AS—the difference in absorbance between times t2 and t1 for the sample;
# AC—the difference in absorbance between times t2 and t1 for the positive control.
# [2] = DPPH free radical scavenging activity; details: 60 min incubation
# Procedure: The DPPH free radical scavenging test was conducted according to the procedure established by Naseer et al.. A working solution of DPPH• was prepared by dissolving 24 mg of DPPH in 100 mL of […]. This solution was further diluted with methanol until it reached an absorbance of 0.900 ± 0.03 at 515 nm. Subsequently, volumes of 10 μL of extracts at concentrations of 1 mg/mL, 0.1 mg/mL, and 0.01 mg/mL (dissolved in MeOH) were combined with 190 μL of the DPPH• solution and allowed to incubate for 60 min. The absorbance at 515 nm was measured post incubation. Butylated hydroxyanisole (BHA) was used as a control. The antioxidant activity was then calculated using a specified equation. INHDPPH=AC−AS/AC∗100%
# AS—the absorbance for sample + DPPH;
# AC—the absorbance without sample + DPPH.
# [3] = ABTS free radical scavenging activity; details: 30 min incubation
# Procedure: The ABTS free radical scavenging test was conducted following the method outlined by Wu et al. A working solution of ABTS+ was prepared by combining 10 mL of ABTS (7 mM in H2O) with 10 mL of potassium persulfate (2.45 mM in H2O). This mixture was then left to incubate in the dark for 12 h. The ABTS solution was subsequently diluted with water until it reached an absorbance of 0.700 ± 0.03 at 405 nm. Then, volumes of 10 μL of extracts at concentrations of 1 mg/mL, 0.1 mg/mL, and 0.01 mg/mL (dissolved in MeOH) were combined with 190 μL of the ABTS+ solution and incubated for 30 min. The absorbance at 405 nm was measured after the incubation period. Butylated hydroxyanisole (BHA) was used as a control. The antioxidant activity was then calculated using a specific equation. INHABTS=AC−AS/AC∗100%
# AS—the absorbance for sample + ABTS;
# AC—the absorbance without sample + ABTS.
# UACC-647 melanoma cells = experiment: MTT viability assay, UACC-647; assay type: cell-based, human
# Procedure: (§1) The following human melanoma cell lines were used in this study: A375 (ATCC:CRL-1619), UACC-647 (CVCL_4049), and SK-MEL-30 (DSMZ:ACC 151). A375 cells were maintained in Dulbecco’s Modified Eagle’s Medium (DMEM). UACC-647 and SK-MEL-30 were cultured in RPMI-1640. All basal media were supplemented with fetal bovine serum (FBS) at a final concentration of 10%. The control used in the study was BJ foreskin fibroblasts (ATCC:CRL-2522). To facilitate the growth of BJ cells, Eagle’s Minimum Essential Medium (EMEM) with 10% FBS was utilized. Tissue culture-treated Petri dishes were used to support all cell lines. A temperature of 37 °C and 5% CO2 were maintained routinely. The cells were expanded for a few passages, then seeded onto 96-well plates, where they were left to attach overnight. The following day, the cells were exposed to E. divaricatus fractionated extracts at descending concentrations, starting from 200 µg/mL, or to a vehicle (DMSO, 0.1%). Alternatively, the cells were treated with doxorubicin (DOX) to independently determine the inhibitory concentrations causing the 10, 50, and 90% levels of maximal inhibition (IC10, IC50, and IC90, respectively) of cellular viability for each melanoma cell line. Then, the melanoma cells were treated with the DOX at IC10, IC50, or IC90, followed by the addition of the fractions of the extracts from E. divaricatus at a dose of 200 µg/mL. Upon 24 h of incubation, the viability of the cells was assessed by MTT assay.
# (§2) Dose–response curves were obtained using GraphPad Prism 8.4.3 software running on a personal computer. Experimental datapoints were fitted to the sigmoidal equation, and the IC50 value was calculated. IC10 and IC90 values were computed using a web tool available at https://www.graphpad.com/ accessed on 20 May 2023.
# SK-MEL-30 melanoma cells = experiment: MTT viability assay, SK-MEL-30; assay type: cell-based, human
# Procedure: as §1, §2
# A375 melanoma cells = experiment: MTT viability assay, A375; assay type: cell-based, human
# Procedure: as §1, §2
# [4] = test system: MCF-7 human breast adenocarcinoma cell line; parameters: method as in PMID 25918798; details: read-out: IC50 antiproliferative; cited from earlier work
# [5] = target: hyaluronidase from bovine testes (bHYAL) (Bos taurus, UniProt Q2YDK3); experiment: Bovine hyaluronidase inhibition assay (CTAB turbidimetric); assay type: biochemical
# Procedure: Bovine hyaluronidase inhibitor assays were conducted in 96-well plates, following a modified method originally described by Di Ferrante and Studzińska-Sroka. The activity of the compounds or extracts was determined based on the precipitation of non-hydrolyzed hyaluronic acid using cetyltrimethylammonium bromide (CTAB). A 10% water solution of DMSO was used to dissolve the extract. Then, 15 μL of extracts at concentrations of 10.0, 1.0, and 0.1 mg/mL in the well were mixed with an acetate buffer (15 μL, pH = 5.35), an incubation buffer (25 μL, pH = 5.35, 0.01% BSA, 0.45% NaCl), and an enzyme solution (25 μL, 30 U/mL in the incubation buffer). This mixture was incubated at 37 °C for 10 min. Following this, a hyaluronic acid solution (25 μL, 0.3 mg/mL in an acetate buffer with a pH of 5.35) was added. The plates were then incubated for an additional 45 min at 37 °C. After incubation, non-hydrolyzed hyaluronic acid was precipitated by adding 2.5% CTAB (200 μL). The plates were then maintained at 25 °C for 10 min. The intensity of the complex formation was measured at a wavelength of 600 nm. The presence of inhibition was determined by measuring the absorbance of the solution without the inhibitor (AC) and the enzyme (AT). All samples were tested in triplicate. The inhibition of hyaluronidase was calculated using a specific equation, with aescin used as a standard. INHHYAL=AS−AC/AT−AC∗100%
# (§3) AS—absorbance of the HA + sample + enzyme;
# (§4) AC—absorbance of the HA + enzyme;
# (§5) AT—absorbance of the HA + sample.
# [6] = test system: human hyaluronidase (hHYAL); details: cited from earlier work
# [7] = target: T1, human serum hyaluronidase (hHYAL) (Homo sapiens, UniProt Q12794); experiment: Human serum hyaluronidase inhibition, serum of children with acute lymphoblastic leukemia; assay type: biochemical; details: mean over sera of 5 patients
# T1 construct: from tissue; host or cells: serum of children diagnosed with acute lymphoblastic leukemia
# T1 sequence (Q12794 22-435): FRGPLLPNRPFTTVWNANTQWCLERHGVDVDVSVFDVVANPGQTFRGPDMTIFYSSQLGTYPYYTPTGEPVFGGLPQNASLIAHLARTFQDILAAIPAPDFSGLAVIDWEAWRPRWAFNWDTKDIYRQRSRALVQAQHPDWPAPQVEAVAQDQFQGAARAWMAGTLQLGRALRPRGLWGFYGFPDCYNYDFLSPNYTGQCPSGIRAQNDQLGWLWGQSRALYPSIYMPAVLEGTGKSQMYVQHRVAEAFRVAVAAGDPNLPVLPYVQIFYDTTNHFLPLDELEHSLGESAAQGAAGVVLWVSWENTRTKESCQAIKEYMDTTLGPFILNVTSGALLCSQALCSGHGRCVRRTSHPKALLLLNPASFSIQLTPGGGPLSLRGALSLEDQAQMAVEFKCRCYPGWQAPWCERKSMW
# Procedure: Five boys diagnosed with acute lymphoblastic leukemia (ALL) before starting treatment were included in the study. These patients were diagnosed at the Department of Pediatric Hematology and Oncology at Jurasz University Hospital in Bydgoszcz, Poland, between 2019 and 2020. Venous blood samples were collected from each child while fasting and placed into serum tubes supplied by Becton Dickinson, located in Franklin Lakes, NJ, USA. The blood samples were left to clot at room temperature for 30 min, then centrifuged for 20 min at 2000× g, also at room temperature. The samples were then collected and stored at a temperature of −80 °C until the time of analysis. The study was approved by the local Bioethics Committee (approval number 608/2019) and was conducted in accordance with the Declaration of Helsinki.
# The inhibition of human serum hyaluronidase was assessed using modified methods. The activity of the compounds or extracts was determined by precipitating non-hydrolyzed hyaluronic acid with cetyltrimethylammonium bromide (CTAB). […] The intensity of the complex formation was measured at a wavelength of 600 nm. […] The inhibition of hyaluronidase was calculated using a specific equation, with aescin used as a standard. […]
# as §3, §4, §5
# [8] = Iron (II) ion chelation assay (ferrozine); details: results for 1 mg/mL
# Procedure: The ion chelation assay was conducted using the method proposed by Li et al. [54]. Initially, 100 μL of extract at a concentration of 1.0 mg/mL was combined with methanol (150 μL, MeOH) and iron(II) chloride (5 μL, FeCl2) at a concentration of 2 mM. Subsequently, 5 μL of ferrozine was added at a concentration of 5 mM. Following a period of incubation, the absorbance was measured at a wavelength of 510 nm. The degree of chelation was then calculated using a specific equation, with ethylenediaminetetraacetic acid (EDTA) serving as a positive control. INHFe^2+=AC−AS/AC∗100%
# AS—the absorbance for sample + ferrozine + FeCl2;
# AC—the absorbance without sample + ferrozine + FeCl2.
# [9] = Homo sapiens, A-375, A375, 24 h
# [10] = phenolic acid and eleutheroside standards (Table 6)
# Sequence of hyaluronidase from bovine testes (bHYAL) (Q2YDK3 entry or part of it): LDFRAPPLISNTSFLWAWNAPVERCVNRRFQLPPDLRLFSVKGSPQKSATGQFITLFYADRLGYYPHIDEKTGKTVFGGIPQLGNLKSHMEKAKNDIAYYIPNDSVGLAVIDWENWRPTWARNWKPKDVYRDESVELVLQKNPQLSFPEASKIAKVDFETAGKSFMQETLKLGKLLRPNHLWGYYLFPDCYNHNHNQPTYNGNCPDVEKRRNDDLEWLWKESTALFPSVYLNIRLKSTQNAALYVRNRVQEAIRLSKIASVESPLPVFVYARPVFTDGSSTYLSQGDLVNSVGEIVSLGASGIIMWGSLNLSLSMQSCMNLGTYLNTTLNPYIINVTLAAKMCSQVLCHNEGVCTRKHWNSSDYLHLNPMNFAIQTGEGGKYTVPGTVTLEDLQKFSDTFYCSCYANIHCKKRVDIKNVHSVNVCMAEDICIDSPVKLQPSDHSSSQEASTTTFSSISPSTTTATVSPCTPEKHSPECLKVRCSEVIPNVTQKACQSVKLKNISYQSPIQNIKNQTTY
compound,measurement,setting,value
O=C(/C=C/c1ccc(O)c(O)c1)O[C@H](Cc1ccc(O)c(O)c1)C(=O)O [rosmarinic acid],IC50,hyaluronidase,545 µM
O=C(O)c1ccc(O)c(O)c1 [Protocatechuic acid],IC50 mTYR,[1],134.57 ± 3.46 ^b µg/mL
"O=C1O[C@H]([C@@H](O)CO)C(O)=C1O [AA, ascorbic acid]",IC50 DPPH,[2],24.93 ± 0.28 ^ab µg/mL
same,IC50 ABTS,[3],2.27 ± 0.07 ^a µg/mL
"COc1cccc2c1C(=O)c1c(O)c3c(c(O)c1C2=O)C[C@@](O)(C(=O)CO)C[C@@H]3O[C@H]1C[C@H](N)[C@H](O)[C@H](C)O1 [DOX, doxorubicin]",IC50,"UACC-647 melanoma cells; Homo sapiens, UACC-647, 24 h",1.16 µM
same,IC90,"UACC-647 melanoma cells; Homo sapiens, UACC-647, 24 h",3.76 µM
same,maximal suppression of viability,UACC-647 melanoma cells; UACC-647,39.15%
same,IC10,"UACC-647 melanoma cells; UACC-647, 24 h",0.36 µM
same,IC50,"SK-MEL-30 melanoma cells; Homo sapiens, SK-MEL-30, 24 h, read-out: IC50 (50% of maximal inhibition of viability)",1.52 µM
same,IC90,"SK-MEL-30 melanoma cells; Homo sapiens, SK-MEL-30, 24 h, read-out: IC90 (90% of maximal inhibition of viability)",9.63 µM
same,maximal drop of viability,SK-MEL-30 melanoma cells; SK-MEL-30,81.87%
same,IC10 (10% of maximal inhibition of viability),"SK-MEL-30 melanoma cells; SK-MEL-30, 24 h",0.24 µM
same,maximal level of inhibition of viability,A375 melanoma cells; A375,96.38%
same,IC10,"A375 melanoma cells; A375, 24 h",0.09 µM
same,inhibition of viability,"A375 melanoma cells; A375, DOX alone at IC90",96%
same,IC50,A375 melanoma cells; [9],0.33 µM
same,IC90,A375 melanoma cells; [9],1.19 µM
"COc1ccc(O)c(C(C)(C)C)c1 [BHA, Butylated hydroxyanisole]",IC50 DPPH,[2],62.52 ± 4.13 ^ab µg/mL
same,IC50 ABTS,[3],2.35 ± 0.11 ^a µg/mL
O=C1OCc2c1c(-c1ccc3c(c1)OCO3)c1cc3c(cc1c2O)OCO3 [taiwanin E],IC50,[4],1.47 µM
"COc1cc(C2OCC3C(c4cc(OC)c(O[C@@H]5O[C@H](CO)[C@@H](O)[C@H](O)[C@H]5O)c(OC)c4)OCC23)cc(OC)c1O[C@@H]1O[C@H](CO)[C@@H](O)[C@H](O)[C@H]1O (single isomer, unassigned; (-)) [Eleutheroside E, (−)-siringaresinol 4,4″-O-β-D-diglucoside]",IC50 mTYR,[1],no activity
same,IC50 bHYAL,[5]; [10],no activity
"COc1cc(/C=C/CO)cc(OC)c1O[C@@H]1O[C@H](CO)[C@@H](O)[C@H](O)[C@H]1O [Eleutheroside B, syringin 4-β-D-glucoside]",IC50 mTYR,[1],no activity
same,IC50 bHYAL,[5]; [10],no activity
O=C(O)/C=C/c1ccc(O)c(O)c1 [Caffeic acid],IC50 mTYR,[1],56.22 ± 0.67 ^a µg/mL
aescin,"inhibition of human hyaluronidase activity, range",[6],20.00–47.37%
same,"inhibition of hyaluronidase activity, mean group value",[6],40%
same,IC50 bHYAL,[5]; fractions of the 75% methanol extract and control (Table 5),388.8 ± 1.81 ^b µg/mL
same,"hHYAL inhibition, mean group value",[7],63.8%
"Cc1c(C)c2c(c(C)c1O)CCC(C)(C(=O)O)O2 (centres unmarked) [TROLOX, 6-hydroxy-2,5,7,8-tetramethylchroman-2-carboxylic acid]",IC50 DPPH,[2],13.68 ± 3.53 ^a µg/mL
same,IC50 ABTS,[3],2.85 ± 0.18 ^ab µg/mL
Eleutheroside E1,IC50 mTYR,[1],no activity
same,IC50 bHYAL,[5]; [10],no activity
"O=C(O)CN(CCN(CC(=O)O)CC(=O)O)CC(=O)O [EDTA, ethylenediaminetetraacetic acid]",Ferrozine (iron(II) chelation),[8],98.9 ± 0.01%
O=C(/C=C/c1ccc(O)c(O)c1)O[C@@H]1C[C@](O)(C(=O)O)C[C@@H](O)[C@H]1O [Chlorogenic acid],IC50 mTYR,[1],107.52 ± 3.46 ^ab µg/mL
